Data taken from the RepoRT retention time repository (doi:10.1021/acs.analchem.1c00972).

Experiments:
[1] = RP, Waters ACQUITY UPLC BEH C18, 100 × 1 mm, 1.7 µm, 50 °C, 0.3 mL/min, estimated dead time 0.17 min; A: water + 10 mM ammonium bicarbonate; B: 10% water + 90% methanol + 10 mM ammonium bicarbonate; gradient (min/%B) 0/0 15/100 21/100 22/0 30/0; details: stereoisomer not certain
[2] = RP, Waters ACQUITY UPLC BEH C18, 100 × 1 mm, 1.7 µm, 50 °C, 0.3 mL/min, estimated dead time 0.17 min; A: water + 0.1% formic acid + 20 mM ammonium formate; B: methanol + 0.1% formic acid + 20 mM ammonium formate; gradient (min/%B) 0/0 15/100 21/100 22/0 30/0; details: stereoisomer not certain

| LC retention time [1] | LC retention time [2] | SMILES |
| --- | --- | --- |
| 7.5 min | 8.16 min | CCn1cc(C(=O)O)c(=O)c2cc(F)c(N3CCNCC3)cc21 [norfloxacin] |
| 12.2 min | 9.88 min | CC(C)Nc1nc(NC(C)C)[nH]c(=O)n1 [Propazine-2-hydroxy] |
| 14.5 min | 14.2 min | CC12CCC(=O)C=C1C=CC1C2CCC2(C)C1CCC21CCC(=O)O1 (stereo not given) [Canrenone] |
| 15.1 min | 14.8 min | CCCC1OC2CC3C4CCC5=CC(=O)C=CC5(C)C4C(O)CC3(C)C2(C(=O)CO)O1 (stereo not given) [Budesonide] |
| 17 min | 14.3 min | CCC(=C(c1ccc(O)cc1)c1ccc(OCCN(C)C)cc1)c1ccccc1 [4-Hydroxytamoxifen] |
| 13.2 min | 12.7 min | c1ccc2sc(N3CCOCC3)nc2c1 [2(4-morpholinyl)benzothiazole] |
| 14.6 min | 14.4 min | CC(Cl)COP(=O)(OCC(C)Cl)OCC(C)Cl (stereo not given) [Tris(2-chloropropyl) phosphate] |
| 12.4 min | 9.64 min | Cc1nccn1CC1CCc2c(c3ccccc3n2C)C1=O (stereo not given) [Ondansetron] |
| 16.2 min | 15.9 min | CCCN(CCOc1c(Cl)cc(Cl)cc1Cl)C(N)=O |
| 3.05 min | 7.76 min | O=C1C(O)Oc2ccccc2N1O (stereo not given) [DIBOA] |
| 15.4 min | 12.8 min | CNCCCC12CCC(c3ccccc31)c1ccccc12 [Maprotiline] |
| 13.3 min | 11.1 min | CCc1ccc(CCOc2ccc(CC3SC(=O)NC3=O)cc2)nc1 (stereo not given) [Pioglitazone] |
| 6.74 min | 5.66 min | CC1(C)SC2C(NC(=O)C(N)c3ccc(O)cc3)C(=O)N2C1C(=O)O (stereo not given) [Amoxicillin] |
| 14.5 min | 14.2 min | CC12CCC(=O)C=C1C1CC1C1C2CCC2(C)C1C1CC1C21CCC(=O)O1 (stereo not given) [Drospirenone] |
| 18 min | 15.7 min | Clc1ccc(COC(Cn2ccnc2)c2ccc(Cl)cc2Cl)c(Cl)c1 (stereo not given) [Miconazole] |
| 10.8 min | 10.7 min | NC(=O)N1c2ccccc2C=Cc2cc(O)ccc21 [2-Hydroxycarbamazepine] |
| 13.1 min | 11.7 min | CNc1nc(NC(C)C)nc(SC)n1 [Desmetryn] |

| LC retention time [1] | LC retention time [2] | SMILES |
| --- | --- | --- |
| 15.5 min | 15.2 min | CC(=O)C1(O)CCC2C3CC(C)C4=CC(=O)CCC4(C)C3CCC21C (stereo not given) [Medroxyprogesterone] |
| 8.74 min | 7.19 min | COc1cc(OC)nc(N)n1 [2-Amino-4,6-dimethoxypyrimidine] |
| 10 min | 12.1 min | c1ccc2sc(SN3CCOCC3)nc2c1 [2-Morpholinothiobenzothiazole] |
| 17.4 min | 11.2 min | CCC1OC(=O)C(C)C(OC2CC(C)(OC)C(O)C(C)O2)C(C)C(OC2OC(C)CC(N(C)C)C2O)C(C)(O)CC(C)CN(C)C(C)C(O)C1(C)O (stereo not given) [Azithromycin] |
| 16.6 min | 16.2 min | CC1C(C)(C)C2=C(C(=O)CCC2)C1(C)C (stereo not given) [Cashmeran] |
| 13.9 min | 13.6 min | CC1(C)OC2CC3C4CCC5=CC(=O)C=CC5(C)C4C(O)CC3(C)C2(C(=O)CO)O1 (stereo not given) [Desonide] |
| 8.96 min | 8.9 min | Cc1cc(=O)n(-c2ccccc2)n1C [Phenazone] |
| 14.7 min | 11.9 min | Clc1ccc2c(c1)CCc1cccnc1C2=C1CCNCC1 [Desloratadine] |
| 12 min | 11.7 min | CCCCOCCOCCOCCOCCO [Tetraethyleneglycol monobutyl ether] |
| 16.7 min | 16.3 min | O=C(OCc1ccccc1)c1ccccc1C(=O)OCc1ccccc1 [Dibenzylphthalate] |
| 6.92 min | 2.7 min | Nc1cccc2c(N)cccc12 [1,5-Naphthalenediamine] |
| 15.7 min | 11.7 min | CN1CCN(C2=Nc3cc(Cl)ccc3Nc3ccccc32)CC1 [Clozapine] |
| 2.63 min | 2.09 min | NC(=O)c1ccc(N)cc1 [4-Aminobenzamide] |
| 14.6 min | 14.2 min | CCCc1nc2c(C)cc(-c3nc4ccccc4n3C)cc2n1Cc1ccc(-c2ccccc2C(=O)O)cc1 [Telmisartan] |
| 19.4 min | 18.9 min | CCCCCCOC(=O)c1ccccc1C(=O)OCC(CC)CCCC (stereo not given) [2-Ethylhexyl(hexyl)phthalate] |
| 16.3 min | 13.7 min | CN(C)C(=O)C(CCN1CCC(O)(c2ccc(Cl)cc2)CC1)(c1ccccc1)c1ccccc1 [Loperamide] |

More lines, now with the values behind:

| SMILES | LC retention time [1] | LC retention time [2] |
| --- | --- | --- |
| CCCCCC(C)OC(=O)COc1ccc(Cl)c2cccnc12 (stereo not given) [Cloquintocet-mexyl] | 17.3 min | 16.9 min |
| COc1ccc2c(c1O)-c1c(OC)c(OC)cc3c1C(C2)N(C)CC3 (single isomer, unassigned; (+)) [(+)-Isocorydin] | 13.6 min | 8.65 min |
| Oc1cc(-c2ccc(Cl)cc2)ccc1Cl [3-Hydroxy-4,4'-dichlorobiphenyl] | 16 min | 15.9 min |
| CCC(C)OC(=O)N1CCCCC1CCO (stereo not given) [Icaridin] | 14 min | 13.7 min |
| CCNc1ccc2c(C)cc(=O)oc2c1 [7-(Ethylamino)-4-methylcoumarin] | 12.5 min | 12.2 min |
| CC=C1CC(C)C(C)(O)C(=O)OCC2=CC[N+]3([O-])CCC(OC1=O)C23 (stereo not given) [Senecionine N-oxide] | 9.78 min | 8.82 min |
| Cc1ncc2n1-c1ccc(Cl)cc1C(c1ccccc1F)=NC2 [Midazolam] | 14.6 min | 11.4 min |
| COc1c(C(C)(C)C)cc([N+](=O)[O-])c(C)c1[N+](=O)[O-] [Musk ambrette] | 6.58 min | 8.38 min |
| CN1CCN2c3ncccc3Cc3ccccc3C2C1 (stereo not given) [Mirtazapine] | 14.9 min | 9.7 min |
| CCC1COC(Cn2cncn2)(c2ccc(Cl)cc2Cl)O1 (stereo not given) [Etaconazole] | 15.4 min | 15 min |
| CC(C)(C)C(O)C(Cc1ccc(Cl)cc1Cl)n1cncn1 (stereo not given) [Dichlobutrazol] | 15.8 min | 15.4 min |
| CC12CCC3C(CCC4C(O)C(=O)C=CC43C)C1CCC2=O (stereo not given) [4- Hydroxyandrostenedione] | 11.9 min | 11.7 min |
| CC(C)CCCCCCOC(=O)c1ccccc1C(=O)OCCCCCCC(C)C [Di-iso-nonylphthalate] | 20.5 min | 19.7 min |
| CCOC(=O)CCN(SN(C)C(=O)Oc1cccc2c1OC(C)(C)C2)C(C)C [Benfuracarb] | 17 min | 16.6 min |
| O=C(O)c1ccc(Cl)cc1Cl [2,4-Dichlorobenzoic acid] | 7.64 min | 12.7 min |
| CC1C(=O)OC2CCN3CC=C(COC(=O)C(C)(O)C1(C)O)C23 (stereo not given) [Monocrotaline] | 8.97 min | 5.17 min |

| SMILES | LC retention time [1] | LC retention time [2] |
| --- | --- | --- |
| COc1ncc(F)c2nc(S(=O)(=O)Nc3c(F)cccc3F)nn12 [Florasulam] | 9 min | 10.5 min |
| Nc1ccc(Cc2ccc(N)c(Cl)c2)cc1Cl [2,2'-dichloro-4,4'-methylenedianiline] | 14.3 min | 13.9 min |
| CC(=O)C1(O)CCC2C3C=C(Cl)C4=CC(=O)C5CC5C4(C)C3CCC21C (stereo not given) [Cyproterone] | 14.9 min | 14.6 min |
| CNC(=O)Oc1cc(C)c(N(C)C)c(C)c1 [Mexacarbate] | 14.8 min | 8.62 min |
| CC(=O)C1(O)CCC2C3CC(C)C4=CC(=O)C=CC4(C)C3(F)C(O)CC21C (stereo not given) [Fluorometholone] | 14.1 min | 13.8 min |
| CCc1cnc(C2=NC(C)(C(C)C)C(=O)N2)c(C(=O)O)c1 (stereo not given) [Imazethapyr] | 8 min | 11.2 min |
| O=S(=O)(c1ccc(Cl)cc1)c1ccc(Cl)cc1 [Bis(4-chlorophenyl)sulfone] | 12 min | 14.9 min |
| O=C1C=CCC2C3CCCN4CCCC(CN12)C34 (stereo not given) [Sophocarpine] | 12.8 min | 5.39 min |
| CC(C)OC(=O)c1ccccc1C(=O)OC(C)C [Diisopropylphthalate] | 15.4 min | 15.1 min |
| Nc1c(Cl)c(Cl)nc(C(=O)O)c1Cl [Picloram] | 4.43 min | 7.28 min |
| COC(=O)c1ccccc1S(=O)(=O)NC(=O)N(C)c1nc(C)nc(OC)n1 [Tribenuron-methyl] | 9.4 min | 12.8 min |
| CNC(=O)N(C)c1nnc(C(C)(C)C)s1 [Tebuthiuron] | 12.1 min | 11.9 min |
| CN(C(=O)COc1nc2ccccc2s1)c1ccccc1 [Mefenacet] | 14.9 min | 14.6 min |
| CCOP(=O)(SC(C)CC)N1CCSC1=O (stereo not given) [Fosthiazate] | 12.8 min | 12.6 min |
| COP(=S)(OC)Oc1ccc(S(C)=O)c(C)c1 (stereo not given) [Fenthion-sulfoxide] | 12.3 min | 12.1 min |
| COC(C)C(O)(C(=O)OCC1=CCN2CCC(O)C12)C(C)(C)O (stereo not given) [Europine] | 9.86 min | 6.72 min |
